In brackets after ≈: the same amount, converted by molar mass.
Tests used:
[1] = test system: Mycobacterium tuberculosis; assay: Antitubercular activity against Mycobacterium tuberculosis; type: functional
Salmonella typhimurium [2] = assay: Genotoxicity in Salmonella typhimurium TA100 assessed as increase in revertant colonies at 50 uM preincubated for 20 mins followed by addition of top agar and minimal agar and measured after 72 hrs in presence of S9 metabolic activation system by Ames test relative to control; type: toxicity, organism-based; conditions: salmonella enterica subsp. enterica serovar typhimurium
Salmonella typhimurium [3] = assay: Genotoxicity in Salmonella typhimurium TA98 assessed as increase in revertant colonies at 5 uM preincubated for 20 mins followed by addition of top agar and minimal agar and measured after 72 hrs in absence of S9 metabolic activation system by Ames test relative to control; type: toxicity, organism-based; conditions: salmonella enterica subsp. enterica serovar typhimurium
J774.A1 [4] = assay: Cytotoxicity against mouse J774A.1 cells assessed as decrease in cell viability at 10 nM after 20 hrs by resazurin dye-based fluorimetric method; conditions: j774.a1, 20 h, 0.01 µM
Salmonella typhimurium [5] = assay: Genotoxicity in Salmonella typhimurium TA98 assessed as increase in revertant colonies at 500 uM preincubated for 20 mins followed by addition of top agar and minimal agar and measured after 72 hrs in presence of S9 metabolic activation system by Ames test relative to control; type: toxicity, organism-based; conditions: salmonella enterica subsp. enterica serovar typhimurium
Salmonella typhimurium [6] = assay: Genotoxicity in Salmonella typhimurium TA98 assessed as increase in revertant colonies at 5 uM preincubated for 20 mins followed by addition of top agar and minimal agar and measured after 72 hrs in presence of S9 metabolic activation system by Ames test relative to control; type: toxicity, organism-based; conditions: salmonella enterica subsp. enterica serovar typhimurium
Salmonella typhimurium [7] = assay: Genotoxicity in Salmonella typhimurium TA98 assessed as increase in revertant colonies at 0.5 uM preincubated for 20 mins followed by addition of top agar and minimal agar and measured after 72 hrs in presence of S9 metabolic activation system by Ames test relative to control; type: toxicity, organism-based; conditions: salmonella enterica subsp. enterica serovar typhimurium
Salmonella typhimurium [8] = assay: Genotoxicity in Salmonella typhimurium TA100 assessed as increase in revertant colonies at 0.5 uM preincubated for 20 mins followed by addition of top agar and minimal agar and measured after 72 hrs in absence of S9 metabolic activation system by Ames test relative to control; type: toxicity, organism-based; conditions: salmonella enterica subsp. enterica serovar typhimurium
[9] = test system: Mycobacterium tuberculosis; assay: Potency index, ratio of ethambutol MIC to compound MIC for antitubercular activity against Mycobacterium tuberculosis H37Rv ATCC 27294; type: functional
Salmonella typhimurium [10] = assay: Genotoxicity in Salmonella typhimurium TA98 assessed as increase in revertant colonies at 5000 uM preincubated for 20 mins followed by addition of top agar and minimal agar and measured after 72 hrs in presence of S9 metabolic activation system by Ames test relative to control; type: toxicity, organism-based; conditions: salmonella enterica subsp. enterica serovar typhimurium
Salmonella typhimurium [11] = assay: Genotoxicity in Salmonella typhimurium TA100 assessed as increase in revertant colonies at 500 uM preincubated for 20 mins followed by addition of top agar and minimal agar and measured after 72 hrs in presence of S9 metabolic activation system by Ames test relative to control; type: toxicity, organism-based; conditions: salmonella enterica subsp. enterica serovar typhimurium
Salmonella typhimurium [12] = assay: Genotoxicity in Salmonella typhimurium TA100 assessed as increase in revertant colonies at 5 uM preincubated for 20 mins followed by addition of top agar and minimal agar and measured after 72 hrs in presence of S9 metabolic activation system by Ames test relative to control; type: toxicity, organism-based; conditions: salmonella enterica subsp. enterica serovar typhimurium
Salmonella typhimurium [13] = assay: Genotoxicity in Salmonella typhimurium TA100 assessed as increase in revertant colonies at 5000 uM preincubated for 20 mins followed by addition of top agar and minimal agar and measured after 72 hrs in presence of S9 metabolic activation system by Ames test relative to control; type: toxicity, organism-based; conditions: salmonella enterica subsp. enterica serovar typhimurium
Salmonella typhimurium [14] = assay: Genotoxicity in Salmonella typhimurium TA98 assessed as increase in revertant colonies at 50 uM preincubated for 20 mins followed by addition of top agar and minimal agar and measured after 72 hrs in absence of S9 metabolic activation system by Ames test relative to control; type: toxicity, organism-based; conditions: salmonella enterica subsp. enterica serovar typhimurium
Salmonella typhimurium [15] = assay: Genotoxicity in Salmonella typhimurium TA100 assessed as increase in revertant colonies at 5 uM preincubated for 20 mins followed by addition of top agar and minimal agar and measured after 72 hrs in absence of S9 metabolic activation system by Ames test relative to control; type: toxicity, organism-based; conditions: salmonella enterica subsp. enterica serovar typhimurium
J774.A1 [16] = assay: Cytotoxicity against mouse J774A.1 cells assessed as decrease in cell viability at 1 uM after 20 hrs by resazurin dye-based fluorimetric method; conditions: j774.a1, 20 h
Salmonella typhimurium [17] = assay: Genotoxicity in Salmonella typhimurium TA98 assessed as increase in revertant colonies at 500 uM preincubated for 20 mins followed by addition of top agar and minimal agar and measured after 72 hrs in absence of S9 metabolic activation system by Ames test relative to control; type: toxicity, organism-based; conditions: salmonella enterica subsp. enterica serovar typhimurium
Salmonella typhimurium [18] = assay: Genotoxicity in Salmonella typhimurium TA98 assessed as increase in revertant colonies at 50 uM preincubated for 20 mins followed by addition of top agar and minimal agar and measured after 72 hrs in presence of S9 metabolic activation system by Ames test relative to control; type: toxicity, organism-based; conditions: salmonella enterica subsp. enterica serovar typhimurium
[19] = Cytotoxicity against human HepG2 cells after 3 hrs by WST-1 assay; type: cell-based; conditions: read-out: LC50
J774.A1 [20] = assay: Cytotoxicity against mouse J774A.1 cells assessed as decrease in cell viability at 100 uM after 20 hrs by resazurin dye-based fluorimetric method; conditions: j774.a1, 20 h
[21] = Selectivity index, ratio of LC50 for human HepG2 cells to MIC for Mycobacterium tuberculosis H37Rv ATCC 27294; type: toxicity; conditions: read-out: Selectivity Index
J774.A1 [22] = assay: Cytotoxicity against mouse J774A.1 cells assessed as decrease in cell viability at 1 nM after 20 hrs by resazurin dye-based fluorimetric method; conditions: j774.a1, 20 h, 0.001 µM
[23] = test system: Mycobacterium tuberculosis; assay: Potency index, ratio of pyrazinamide MIC to compound MIC for antitubercular activity against Mycobacterium tuberculosis H37Rv ATCC 27294; type: functional
Salmonella typhimurium [24] = assay: Genotoxicity in Salmonella typhimurium TA98 assessed as increase in revertant colonies at 0.5 uM preincubated for 20 mins followed by addition of top agar and minimal agar and measured after 72 hrs in absence of S9 metabolic activation system by Ames test relative to control; type: toxicity, organism-based; conditions: salmonella enterica subsp. enterica serovar typhimurium
Salmonella typhimurium [25] = assay: Genotoxicity in Salmonella typhimurium TA98 assessed as increase in revertant colonies at 5000 uM preincubated for 20 mins followed by addition of top agar and minimal agar and measured after 72 hrs in absence of S9 metabolic activation system by Ames test relative to control; type: toxicity, organism-based; conditions: salmonella enterica subsp. enterica serovar typhimurium
Salmonella typhimurium [26] = assay: Genotoxicity in Salmonella typhimurium TA100 assessed as increase in revertant colonies at 5000 uM preincubated for 20 mins followed by addition of top agar and minimal agar and measured after 72 hrs in absence of S9 metabolic activation system by Ames test relative to control; type: toxicity, organism-based; conditions: salmonella enterica subsp. enterica serovar typhimurium
Salmonella typhimurium [27] = assay: Genotoxicity in Salmonella typhimurium TA100 assessed as increase in revertant colonies at 50 uM preincubated for 20 mins followed by addition of top agar and minimal agar and measured after 72 hrs in absence of S9 metabolic activation system by Ames test relative to control; type: toxicity, organism-based; conditions: salmonella enterica subsp. enterica serovar typhimurium
[28] = test system: Mycobacterium tuberculosis; assay: Antitubercular activity against Mycobacterium tuberculosis H37Rv ATCC 27294 after 5 days by microplate alamar blue assay; type: functional; conditions: H37Rv ATCC 27294, 120 h
J774.A1 [29] = assay: Cytotoxicity against mouse J774A.1 cells assessed as decrease in cell viability at 100 nM after 20 hrs by resazurin dye-based fluorimetric method; conditions: j774.a1, 20 h, 0.1 µM
[30] = Cytotoxicity against human HepG2 cells after 24 hrs by WST-1 assay; type: cell-based; conditions: read-out: LC50
J774.A1 [31] = assay: Cytotoxicity against mouse J774A.1 cells assessed as decrease in cell viability at 10 uM after 20 hrs by resazurin dye-based fluorimetric method; conditions: j774.a1, 20 h
Salmonella typhimurium [32] = assay: Genotoxicity in Salmonella typhimurium TA100 assessed as increase in revertant colonies at 500 uM preincubated for 20 mins followed by addition of top agar and minimal agar and measured after 72 hrs in absence of S9 metabolic activation system by Ames test relative to control; type: toxicity, organism-based; conditions: salmonella enterica subsp. enterica serovar typhimurium
Salmonella typhimurium [33] = assay: Genotoxicity in Salmonella typhimurium TA100 assessed as increase in revertant colonies at 0.5 uM preincubated for 20 mins followed by addition of top agar and minimal agar and measured after 72 hrs in presence of S9 metabolic activation system by Ames test relative to control; type: toxicity, organism-based; conditions: salmonella enterica subsp. enterica serovar typhimurium

CC(=O)Nc1ccc(Cl)cc1C(F)(F)C(=O)NNC(N)=S
MIC [1]: 297 µM (≈ 100 µg/mL)

CC(=O)Nc1ccccc1C(=O)C(=O)NNC(=O)c1ccncc1
fold change (FC) (Salmonella typhimurium [2]): 1.2 | fold change (FC) (Salmonella typhimurium [3]): 1.1 | Activity (J774.A1 [4]): 98.7% | fold change (FC) (Salmonella typhimurium [5]): 2 | fold change (FC) (Salmonella typhimurium [6]): 1.1 | fold change (FC) (Salmonella typhimurium [7]): 1.1 | fold change (FC) (Salmonella typhimurium [8]): 1 | Ratio [9]: 30 | fold change (FC) (Salmonella typhimurium [10]): 2.5 | fold change (FC) (Salmonella typhimurium [11]): 1.2 | fold change (FC) (Salmonella typhimurium [12]): 1.1 | fold change (FC) (Salmonella typhimurium [13]): 1.3 | fold change (FC) (Salmonella typhimurium [14]): 1.2 | fold change (FC) (Salmonella typhimurium [15]): 1.3 | Activity (J774.A1 [16]): 99.5% | fold change (FC) (Salmonella typhimurium [17]): 1.3 | fold change (FC) (Salmonella typhimurium [18]): 1.6 | CC50 at 3 h [19]: > 200 µM | Activity (J774.A1 [20]): 93.3% | selectivity ratio [21]: 67 | Activity (J774.A1 [22]): 99.6% | Ratio [23]: 1800 | fold change (FC) (Salmonella typhimurium [24]): 1 | fold change (FC) (Salmonella typhimurium [25]): 1.3 | fold change (FC) (Salmonella typhimurium [26]): 1.4 | fold change (FC) (Salmonella typhimurium [27]): 1.3 | MIC [28]: 0.47 µM (≈ 0.153 µg/mL) | Activity (J774.A1 [29]): 97.7% | CC50 at 24 h [30]: 31.5 µM | Activity (J774.A1 [31]): 97.1% | fold change (FC) (Salmonella typhimurium [32]): 1.3 | fold change (FC) (Salmonella typhimurium [33]): 1.1
